Data published in patent publication US7084155B2, “Chemokine receptor binding heterocyclic compounds” (AnorMED, priority 2000, dated 2006).

Assays:
[1] = tested on: HIV-1 NL4.3 or IIIB; experiment: Inhibition of HIV-1 (NL4.3 or IIIB, CXCR4 using) replication in MT-4 cells, MTT viability; assay type: cell-based; settings: Human immunodeficiency virus 1, IIIB, MT4, concentration protecting 50% of virus-infected cells against viral cytopathicity
Protocol: Assay for Inhibition of HIV-1 (NL4.3) Replication in MT-4 Cells Inhibition of HIV-1 NL4.3 (or IIIB, CXCR4 using) replication assays were performed as previously described (Bridger et al. J. Med. Chem. 1999, 42, 3971-3981; De […] et al. Proc. Natl. Acad. Sci, 1992, 89, 5286-5290; De […] et al. Antimicrob. Agents Chemother. 1994, 38, 668-674; Bridger et al. J. Med. Chem. 1995, 38, 366-378; Schols et al. J. Exp. Med., 1997, 186, 1383-1388). Anti-HIV activity and cytotoxicity measurements were carried out in parallel. They were based on the viability of MT-4 cells that had been infected with HIV in the presence of various concentrations of the test compounds. After the MT-4 cells were allowed to proliferate for 5 days, the number of viable cells was quantified by a tetrazolium-based colorimetric 3-(4,5-dimethylthiazol-2-yl)-2,5-diphenyltetrazolium bromide (MTT) procedure in 96-well microtrays. In all of these assays, viral input (viral multiplicity of infection, MOI) was 0.01, or 100 times the 50% cell culture infective dose (CCID50). The EC50 was defined as the concentration required to protect 50% of the virus-infected cells against viral cytopathicity.

[2] = tested on: SDF-1 induced Ca flux in SUP-T1 cells; experiment: Inhibition of chemokine (SDF-1) induced Ca flux measured on a FLIPR; assay type: cell-based; settings: Homo sapiens
Protocol: Inhibition of Chemokine Induced Ca Flux Measured on a FLIPR (Molecular Devices) Loading dye: Fluo-3, AM (Molecular Probes F-1241) is dissolved in anhydrous DMSO and stored frozen in aliquots. To increase the solubility of the dye in the loading medium, 10% (w/v) pluronic acid (Molecular Probes F-127) is added to the Fluo-3 stock solution immediately before use. HBSS+20 mM Hepes buffer+0.2% BSA, pH 7.4. HBSS 10× [(w/o phenol red and sodium bicarbonate (Gibco 14 065–049)]; Hepes buffer 1M (Gibco 15 630–056), BSA (Sigma A3675). The flux buffer is vacuum-filtered and stored refrigerated for a maximum of 5 days. Before use in the experiment, the buffer is warmed at 37° C. in a waterbath. The test compounds were diluted in flux buffer to the desired concentration and added to 4 wells of a black microplate (4 parallel measurements per compound). The following control wells were used: 100% response control (no inhibition), flux buffer was added; 100% inhibition control: chemokine was added at 5-times the concentration required to induce a Ca flux. The chemokines are diluted in flux buffer to concentrations that are 4-fold higher than the desired concentrations required for stimulation of the cells (i.e. 2.5 nM for SDF-1[…] and 0.6 nM for RANTES). The chemokines were added to untreated 96-well Sero well compound plates (International Medical, Sterilin code 611F96). In the negative control well's (baseline monitoring), flux buffer is added instead of chemokine. As a positive control to check for dye loading efficiency, 20 μM digitonin (final concentration) was also included. The agonist plate was incubated in the FLIPR (37° C.) for 15–30 min. Cell Loading Protocol for Measuring Inhibition of SDF-1[…] Induced Ca Flux in SUP-T1 Cells. SUP-T1 cells were centrifuged at room temperature (RT) and re-suspended in loading medium (RPMI-1640 containing 2% FBS and 4 μM Fluo-3, AM). The cells were incubate at room temperature for 45 min. then washed twice in flux buffer then incubated in flux buffer at room temperature for 10 min. The cells were centrifuged and re-suspended in flux buffer at a density of 3×10^6 cells per mL. A 100 uL aliquot of the cell suspension (3×10^5 cells) was added to each well of a black microplate (Costar 3603), which already contains 50 uL of a solution of the test compound (at concentrations that are 3-fold higher than the desired final compound concentrations). The microplate is then gently centrifuged at room temperature. Homogeneous spreading of the cells on the bottom of the microplate wells was then confirmed with a microscope and the microplate was incubated in the FLIPR (37° C.) for 10 min. prior to testing. Fluorescence Measurements as a Function of Time on the FLIPR The FLIPR settings (camera exposure time and laser power) are adjusted to obtain initial fluorescence values between 8,000 and 10,000 units. After monitoring a 20 second-baseline, the agonist (chemokine) (50 uL) is added by automatic pipettor with black pipette tips. Fluorescence is measured simultaneously in all wells of the microplate every 2 seconds (first 2 min) and thereafter every 6 seconds (additional 2 min). The average ca-flux measured in each set of 4 identical wells (one test compound) was calculated by the FLIPR software.

Row | SMILES | EC50 [1] [µg/mL] | inhibition at 20 µg/mL [2] [%]
1 | Cc1ccc2nc(CN(Cc3ccc(CNCc4ccccn4)cc3)C3CCCc4cccnc43)[nH]c2c1C (centres unmarked) [Example 4, N-(2-pyridinylmethyl)-N′-(4,5-dimethyl-1-H-benzimidazol-2-ylmethyl)-N′-(5,6,7,8-tetrahydro-8-quinolinyl)-1,4-benzenedimethanamine] | < 20 | > 20
2 | FC(F)(F)c1cccc2nc(CN(Cc3ccc(CNCc4ccccn4)cc3)C3CCCc4cccnc43)[nH]c12 (centres unmarked) [Example 5, N-(2-pyridinylmethyl)-N′-(4-trifluoromethyl-1-H-benzimidazol-2-ylmethyl)-N′-(5,6,7,8-tetrahydro-8-quinolinyl)-1,4-benzenedimethanamine] | < 20 | > 20
3 | c1ccc(CNCc2ccc(CN(Cc3nc4cccnc4[nH]3)C3CCCc4cccnc43)cc2)nc1 (centres unmarked) [Example 10, N-(2-pyridinylmethyl)-N′-[(1H)-4-azabenzimidazol-2-ylmethyl]-N′-(5,6,7,8-tetrahydro-8-quinolinyl)-1,4-benzenedimethanamine] | < 20 | > 20
4 | COc1ccc(OC)c2[nH]c(CN(Cc3ccc(CNCc4ccccn4)cc3)C3CCCc4cccnc43)nc12 (centres unmarked) [Example 15, N-(2-pyridinylmethyl)-N′-[4,7-dimethoxy-1H-benzimidazol-2-ylmethyl]-N′-(5,6,7,8-tetrahydro-8-quinolinyl)-1,4-benzenedimethanamine] | < 20 | > 20
5 | c1ccc(CNCc2ccc(CN(Cc3nc4ccccc4s3)C3CCCc4cccnc43)cc2)nc1 (centres unmarked) [Example 16, N-(2-pyridinylmethyl)-N′-(benzothiazol-2-ylmethyl)-N′-(5,6,7,8-tetrahydro-8-quinolinyl)-1,4-benzenedimethanamine] | < 20 | –
6 | Fc1cccc2nc(CN(Cc3ccc(CNCc4ccccn4)cc3)C3CCCc4cccnc43)[nH]c12 (centres unmarked) [Example 21, N-(2-pyridinylmethyl)-N′-(4-fluorobenzimidazol-2-ylmethyl)-N′-(5,6,7,8-tetrahydro-8-quinolinyl)-1,4-benzenedimethanamine] | < 20 | > 20
7 | Brc1cccc2nc(CN(Cc3ccc(CNCc4ccccn4)cc3)C3CCCc4cccnc43)[nH]c12 (centres unmarked) [Example 22, N-(2-pyridinylmethyl)-N′-(4-bromobenzimidazol-2-ylmethyl)-N′-(5,6,7,8-tetrahydro-8-quinolinyl)-1,4-benzenedimethanamine] | < 20 | > 20
8 | c1ccc(CNCc2ccc(CN(CCc3nc4ccccc4[nH]3)C3CCCc4cccnc43)cc2)nc1 (centres unmarked) [Example 23] | < 20 | > 20
9 | c1ccc(CNCc2ccc(CN(CCCc3nc4ccccc4[nH]3)C3CCCc4cccnc43)cc2)nc1 (centres unmarked) [Example 24, N-(2-pyridinylmethyl)-N′-[3-(1H-benzimidazol-2-yl)prop-1-yl]-N′-(5,6,7,8-tetrahydro-8-quinolinyl)-1,4-benzenedimethanamine] | < 20 | > 20
10 | COc1ccc(-c2cnc(CN(Cc3ccc(CNCc4ccccn4)cc3)C3CCCc4cccnc43)[nH]2)cc1 (centres unmarked) [Example 26, N-(2-pyridinylmethyl)-N′-[4-(4-methoxyphenyl)-1H-imidazol-2-ylmethyl]-N′-(5,6,7,8-tetrahydro-8-quinolinyl)-1,4-benzenedimethanamine] | < 20 | > 20
11 | Fc1ccc(-c2c[nH]c(CN(Cc3ccc(CNCc4ccccn4)cc3)C3CCCc4cccnc43)n2)cc1 (centres unmarked) [Example 36, N-(2-Pyridinylmethyl)-N′-[4-(4-fluorophenyl)-1H-imidazol-2-ylmethyl]-N′-(5,6,7,8-tetrahydro-8-quinolinyl)-1,4-benzenedimethanamine] | < 20 | > 20
12 | CCOc1cccnc1CNCc1ccc(CN(Cc2nc3ccccc3[nH]2)C2CCCc3cccnc32)cc1 (centres unmarked) [Example 69, N-(3-ethoxy-2-pyridinylmethyl)-N′-(1H-benzimidazol-2-ylmethyl)-N′-(5,6,7,8-tetrahydro-8-quinolinyl)-1,4-benzenedimethanamine] | < 20 | –
13 | [O-][n+]1ccccc1CNCc1ccc(CN(Cc2nc3ccccc3[nH]2)C2CCCc3cccnc32)cc1 (centres unmarked) [Example 70, N-(1-oxo-2-pyridinylmethyl)-N′-(1H-benzimidazol-2-ylmethyl)-N′-(5,6,7,8-tetrahydro-8-quinolinyl)-1,4-benzenedimethanamine] | < 20 | –
14 | c1ccc(N[C@H]2CCCC[C@@H]2N(Cc2ccc(CNCc3ccccn3)cc2)Cc2nc3ccccc3[nH]2)cc1 [Example 131] | < 20 | –

More lines, main results first:

Row | EC50 [1] [µg/mL] | SMILES | inhibition at 20 µg/mL [2] [%]
15 | < 20 | Fc1ccc2nc(CN(Cc3ccc(CNCc4ccccn4)cc3)C3CCCc4cccnc43)[nH]c2c1 (centres unmarked) [Example 3, N-(2-pyridinylmethyl)-N′-(5-fluoro-1-H-benzimidazol-2-ylmethyl)-N′-(5,6,7,8-tetrahydro-8-quinolinyl)-1,4-benzenedimethanamine] | > 20
16 | < 20 | COC(=O)c1ccc2[nH]c(CN(Cc3ccc(CNCc4ccccn4)cc3)C3CCCc4cccnc43)nc2c1 (centres unmarked) [Example 6, N-(2-pyridinylmethyl)-N′-(5-carboxymethyl-1-H-benzimidazol-2-ylmethyl)-N′-(5,6,7,8-tetrahydro-8-quinolinyl)-1,4-benzenedimethanamine] | > 20
17 | < 20 | Oc1cccc2[nH]c(CN(Cc3ccc(CNCc4ccccn4)cc3)C3CCCc4cccnc43)nc12 (centres unmarked) [Example 7, N-(2-pyridinylmethyl)-N′-(4-hydroxy-1-H-benzimidazol-2-ylmethyl)-N′-(5,6,7,8-tetrahydro-8-quinolinyl)-1,4-benzenedimethanamine] | > 20
18 | < 20 | O=C(c1ccccc1)c1ccc2[nH]c(CN(Cc3ccc(CNCc4ccccn4)cc3)C3CCCc4cccnc43)nc2c1 (centres unmarked) [Example 9, N-(2-pyridinylmethyl)-N′-(5-benzoyl-1H-benzimidazol-2-ylmethyl)-N′-(5,6,7,8-tetrahydro-8-quinolinyl)-1,4-benzenedimethanamine] | > 20
19 | < 20 | Clc1ccc2[nH]c(CN(Cc3ccc(CNCc4ccccn4)cc3)C3CCCc4cccnc43)nc2c1 (centres unmarked) [Example 11, N-(2-pyridinylmethyl)-N′-[5-chloro-1H-benzimidazol-2-ylmethyl]-N′-(5,6,7,8-tetrahydro-8-quinolinyl)-1,4-benzenedimethanamine] | > 20
20 | < 20 | COc1ccc2nc(CN(Cc3ccc(CNCc4ccccn4)cc3)C3CCCc4cccnc43)[nH]c2c1 (centres unmarked) [Example 12, N-(2-pyridinylmethyl)-N′-[5-methoxy-1H-benzimidazol-2-ylmethyl]-N′-(5,6,7,8-tetrahydro-8-quinolinyl)-1,4-benzenedimethanamine] | > 20
21 | < 20 | Cc1cccc2nc(CN(Cc3ccc(CNCc4ccccn4)cc3)C3CCCc4cccnc43)[nH]c12 (centres unmarked) [Example 20, N-(2-pyridinylmethyl)-N′-(4-methylbenzimidazol-2-ylmethyl)-N′-(5,6,7,8-tetrahydro-8-quinolinyl)-1,4-benzenedimethanamine] | > 20
